Results: patent publication EP1985629A1, “Pro-apoptotic molecules and therapeutic uses thereof” (UNIVERSITA DEGLI STUDI DI GENOVA, priority 2007, dated 2008)
Marks after values point to notes of the source that are not given here. Where a SMILES comes first, the peptide text is derived from it. [ ]: non-standard residue; d: D form. Aib = CC(C)(N)C(=O)O

Key:
NBM: normal bone marrow = test: Ex vivo bone marrow cells, flow cytometry DNA/SSC analysis of apoptosis; type: cell-based, human; conditions: analysed day 4
Method: (§1) For experiments with primary cells of acute lymphoblastic leukaemia (ALL), […] Acute Myeloid Leukaemia (AML), fresh samples of bone marrow aspirates were from patients who had at least 80% blasts among their mononuclear cells. Normal hematopoietic cells (NBM) were obtained from healthy volunteers. Mononuclear cells were isolated from the samples by Ficoll density-gradient centrifugation. Primary cells were cultured as above. The collection of human specimens was performed after informed consent of the patient during diagnostic procedure. Viability was determined by Facs analysis: PI emission fluorescence.
(§2) Cells were harvested and incubated with 30 µg/ml PI (Sigma Chemical Co.) and 0.5 mg/ml RNase for 30 min at room temperature and in the dark. Flow cytometric measurements of Forward Scatter (FSC) and Side Scatter (SSC) of light emitted from the excitation laser, and of PI emission fluorescence, were performed on a FACSCalibur (Becton Dickinson) flow cytometer. At least 10,000 events were acquired on a linear scale from each sample. Frequency distributions of DNA content and SSC were analysed for the evaluation of apoptosis at different apoptotic stages and cell cycle phases, as previously described.
(§3) Bone marrow aspirates from patients with different leukaemia types were plated in tissue culture medium supplemented with 20% FCS, treated with 072RB twice every 48 h, and followed for 4 days. They were evaluated by flow cytometry DNA/SSC analysis, In Table 3 we show the percentage of [early + late apoptotic cells], according to leukaemia type and Int or 072RB dosage. To further study sensitivity to 072RB of normal cells, peripheral blood lymphocytes (PBL) isolated from four independent healthy donors were subjected to a four-days treatment with 10 µM 072RB. Treatment was performed, as usual, with two pulses at a 48 h interval. Lymphocytes were either un-stimulated or activated by PHA. […] Comparing treated and untreated normal peripheral lymphocytes, the ratio of viable cells between the two groups was 0.87 ± 0.05 (mean ± SE) for quiescent lymphocytes and 0.82 ± 0.057 for proliferating lymphocytes. This effect of 072RB on normal lymphocytes seems especially small if we consider the effects observed in leukaemia cell lines (see supplementary information), and also the effects observed in AML cells from ex vivo experiments: 0.55 ± 0.145 (mean ± SE). Table 3: Effect of 072RB on haematological malignancies (AML: acute myeloid leukaemia; ALL: acute lymphoid leukaemia; NBM: normal bone marrow): percentage of early/late apoptotic cells. Mean values from duplicate experiments are reported. The difference between the two individual values never exceeded 15% of the mean value. Ex vivo isolated cells were treated with either Int or 072RB at day 0, 2 (5, 10 µM), at day 0, 1, 2, 3 (1, 3 µM) and analysed after PI staining at day 4.

[1] = system: ALL: acute lymphoid leukaemia; test: as above; type: cell-based, human; conditions: analysed day 4
Method: as §1, §2, §3

[2] = system: AML: acute myeloid leukaemia; test: as above; type: cell-based, human; conditions: for percentage of early/late apoptotic cells: AML, analysed day 4
Method: as §1, §2, §3

tumour cell lines = test: Propidium iodide (PI) uptake test, cell viability; type: cell-based, human; conditions: treated for 4 days; data not shown
Method: PI uptake tests were performed to assess cell viability. Cells suspended in culture medium were incubated for 5 min with 3 µg/ml PI and analysed by flow cytometry. […] At least 10,000 events were acquired on a logarithmic scale from each sample.
Based on the results reported above we selected treatment concentrations of 5 µM and 10 µM for subsequent experiments. […] To evaluate whether the decreased cell growth was due to cell cycle arrest, cell death, or both, flow cytometry assays to assess cell viability and cell cycle behavior were performed. […] Flow cytometry measurements of DNA content and side scatter confirmed that the main cause of cell growth inhibition after 2 or 4 days of 072RB treatment at 5, 10 or 30 µM respectively, was cell death rather than cell cycle perturbation, as shown in Figure 3A for U937 cells. Three main cell populations can be observed in bivariate plots of side scatter (SSC) vs. DNA content (PI fluorescence), one with low SSC and normal DNA content (that accounts for cells "alive" in culture), another with high SSC and normal DNA content (cells undergoing "an early stage of apoptosis ") and another one with lower PI fluorescence (cells at "a late stage of apoptosis" and debris). The respective DNA histograms (projection of the dot plots on the x-axis) are reported for each plot. […]

[3] = Circular dichroism, relative content of secondary structure elements; type: physicochemical; design: key to α-Helix / β-Strands / β-Turns / Random: relative content as fraction, from CDSSTR deconvolution; conditions: CDSSTR deconvolution
Method: Circular dichroism (CD) spectra in the far-UV region (190-260 nm) were collected on a Jasco J-715 spectropolarimeter using a 0.1 cm path-length cuvette. Temperature was kept at 25°C by a Peltier device. Peptide concentration was determined from the absorption of the aromatic residues at 280 nm.
Peptides solutions: Bim-BH3Y and Bim-BH3YA2Aib were suspended in water and potassium hydroxide was added up to complete solubilization. 072RB was dissolved in water. Concentration of stock solutions was about 0.1 mg/ml. For circular dichroism measurements, stock solutions were diluted in 10 mM potassium phosphate buffer, pH 7.
The relative content of secondary structure elements was calculated with the deconvolution program CDSSTR [31] (Table 2). […] 072RB has the highest helical content in the set examined here (0.30 α-helix percent).

[4] = NBM sample with control 15, treated with 15 µM (footnote *), printed in the 10 µM column
[5] = NBM sample with control 39, 10 µM at day 0, 2
[6] = ALL, Pro-B (control 32), 5 µM at day 0, 2
[7] = ALL, Pro-B (control 32), 10 µM at day 0, 2
[8] = FAB M0 (control 33), 5 µM at day 0, 2
[9] = FAB M0 (control 33), 10 µM at day 0, 2
[10] = FAB M3 (control 23), 5 µM at day 0, 2
[11] = FAB M3 (control 23), 10 µM at day 0, 2
[12] = relative content, 10 mM potassium phosphate buffer, pH 7, 25°C

## KKWKMRRNPFWIKIQR [Int, internalisation tag, a modified Q50P 16 aa Antennapedia IIIrd α-helix, reference compound]
NBM: normal bone marrow; [4]
  percentage of early/late apoptotic cells: 18* percentage
NBM: normal bone marrow; [5]
  percentage of early/late apoptotic cells: 37 percentage
[1]; [6]
  percentage of early/late apoptotic cells: 32 percentage
[1]; [7]
  percentage of early/late apoptotic cells: 43 percentage
[2]; [8]
  percentage of early/late apoptotic cells: 32 percentage
[2]; [9]
  percentage of early/late apoptotic cells: 38 percentage
[2]; [10]
  percentage of early/late apoptotic cells: 26 percentage
[2]; [11]
  percentage of early/late apoptotic cells: 28 percentage

## CC[C@H](C)[C@H](NC(=O)[C@H](CCCNC(=N)N)NC(=O)[C@H](CCCNC(=N)N)NC(=O)[C@H](CC(C)C)NC(=O)[C@H](CCC(=O)O)NC(=O)[C@H](CCC(N)=O)NC(=O)C(C)(C)NC(=O)[C@@H](NC(=O)[C@H](Cc1ccc(O)cc1)NC(=O)[C@@H](NC(=O)[C@H](CCC(=O)O)NC(=O)[C@@H]1CCCN1C(=O)[C@H](CCCNC(=N)N)NC(=O)[C@H](CCSC)NC(=O)[C@@H](N)CC(=O)O)[C@@H](C)CC)[C@@H](C)CC)C(=O)NCC(=O)N[C@@H](CC(=O)O)C(=O)N[C@@H](C)C(=O)N[C@@H](Cc1ccccc1)C(=O)N[C@@H](CC(N)=O)C(=O)NC(C)(C)C(=O)N[C@@H](Cc1ccc(O)cc1)C(=O)N[C@@H](CCCCN)C(=O)N[C@@H](CCCCN)C(=O)N[C@@H](Cc1c[nH]c2ccccc12)C(=O)N[C@@H](CCCCN)C(=O)N[C@@H](CCSC)C(=O)N[C@@H](CCCNC(=N)N)C(=O)N[C@@H](CCCNC(=N)N)C(=O)N[C@@H](CC(N)=O)C(=O)N1CCC[C@H]1C(=O)N[C@@H](Cc1ccccc1)C(=O)N[C@@H](Cc1c[nH]c2ccccc12)C(=O)N[C@H](C(=O)N[C@@H](CCCCN)C(=O)N[C@H](C(=O)N[C@@H](CCC(N)=O)C(=O)N[C@@H](CCCNC(=N)N)C(N)=O)[C@@H](C)CC)[C@@H](C)CC [Peptide 072RB] (H-DMRPEIYI[Aib]QELRRIGDAFN[Aib]YKKWKMRRNPFWIKIQR-NH2; N-terminus and C-terminus assumed)
NBM: normal bone marrow; [4]
  percentage of early/late apoptotic cells: 21* percentage
NBM: normal bone marrow; [5]
  percentage of early/late apoptotic cells: 39 percentage
[1]; ALL sample with control 40, 5 µM at day 0, 2
  percentage of early/late apoptotic cells: 42 percentage
[1]; ALL sample with control 40, 10 µM at day 0, 2
  percentage of early/late apoptotic cells: 45 percentage
[1]; ALL sample with control 43, 5 µM at day 0, 2
  percentage of early/late apoptotic cells: 67 percentage
[1]; ALL sample with control 52, 5 µM at day 0, 2
  percentage of early/late apoptotic cells: 60 percentage
[1]; ALL sample with control 52, 10 µM at day 0, 2
  percentage of early/late apoptotic cells: 80 percentage
[1]; [6]
  percentage of early/late apoptotic cells: 56 percentage
[1]; [7]
  percentage of early/late apoptotic cells: 63 percentage
[2]; AML cells from ex vivo experiments, mean ± SE
  ratio of viable cells, treated versus untreated: 0.55 ± 0.145
[2]; [8]
  percentage of early/late apoptotic cells: 36 percentage
[2]; [9]
  percentage of early/late apoptotic cells: 42 percentage
[2]; FAB M0-M1 (control 14), 5 µM at day 0, 2
  percentage of early/late apoptotic cells: 22 percentage
[2]; FAB M0-M1 (control 14), 10 µM at day 0, 2
  percentage of early/late apoptotic cells: 40 percentage
[2]; FAB M2 (control 24), 5 µM at day 0, 2
  percentage of early/late apoptotic cells: 66 percentage
[2]; [10]
  percentage of early/late apoptotic cells: 64 percentage
[2]; [11]
  percentage of early/late apoptotic cells: 82 percentage
[2]; FAB M4-M5 (control 50), 5 µM at day 0, 2
  percentage of early/late apoptotic cells: 75 percentage
[2]; FAB M6 (control 15), 10 µM at day 0, 2
  percentage of early/late apoptotic cells: 67 percentage
Tumour cell lines
  cell death (PI uptake test): dose-dependent cell death
[3]
  relative content of helices: 0.30 α-helix percent
[3]; [12]
  Random: 0.42
  α-Helix: 0.30
  β-Strands: 0.12
  β-Turns: 0.15
